Structures can show the parent of a compound that is named as a salt.
Experiments:
Type in all cases: in vivo
Botrytis cinerea [1] = assay: Example 7: efficacy against Botrytis cinerea on gherkin plants, Compound 1 and benalaxyl; details: grading 5 to 7 days after contamination
Experimental: (§1) The active ingredients tested are prepared by potter homogenisation in a mixture of acetone/tween/water. This suspension is then diluted with water to obtain the desired active material concentration.
(§2) Gherkin plants (Petit vert de Paris variety) in starter cups, sown on a 50/50 peat soil-pozzolana substrate and grown at 18-20° C., are treated at the cotyledon Z11 stage by spraying with the aqueous suspension described above. Plants, used as controls, are treated with an aqueous solution not containing the active material.
(§3) After 24 hours, the plants are contaminated by depositing drops of an aqueous suspension of Botrytis cinerea spores (150,000 spores per ml) on upper surface of the leaves. The spores are collected from a 15-day-old culture and are suspended in a nutrient solution composed of: • 20 g/L of gelatine • 50 g/L of cane sugar • 2 g/L of NH4NO3 • 1 g/L of KH2PO4
(§4) The contaminated gherkin plants are settled for 5/7 days in a climatic room at 15-11° C. (day/night) and at 80% relative humidity. Grading (% of efficacy) is carried out 5 to 7 days after the contamination, in comparison with the control plants.

Puccinia recondita = assay: Example 3: efficacy against Puccinia recondita on wheat plants, Compound 1 and captan; details: 240 h, grading 10 days after contamination
Experimental: as §1
Wheat plants (Scipion variety) in starter cups, sown on 50/50 peat soil-pozzolana substrate and grown at 12° C., are treated at the 1-leaf stage (10 cm tall) by spraying with the aqueous suspension described above.
(§5) Plants, used as controls, are treated with an aqueous solution not containing the active material.
After 24 hours, the plants are contaminated by spraying the leaves with an aqueous suspension of Puccinia recondita spores (100,000 spores per ml). The spores are collected from a 10-day-old contaminated wheat and are suspended in water containing 2.5 ml/l of tween 80 10%. The contaminated wheat plants are incubated for 24 hours at 20° C. and at 100% relative humidity, and then for 10 days at 20° C. and at 70% relative humidity. Grading is carried out 10 days after the contamination, in comparison with the control plants.

[2] = test system: Erysiphe graminis f. sp. tritici; assay: Example 14: efficacy against Erysiphe graminis f. sp. tritici on wheat plants, Compound 1 and chlorothalonil; details: Blumeria graminis, grading 7 to 14 days after contamination
Experimental: The formulated compounds are diluted with water to obtain the desired active material concentration
Wheat plants (Audace variety) in starter cups, sown on 50/50 peat soil-pozzolana substrate and grown at 12° C., are treated at the 1-leaf stage (10 cm tall) by spraying with the aqueous suspension described above.
as §5
After 24 hours, the plants are contaminated by dusting them with Erysiphe graminis f. sp. tritici spores, the dusting being carried out using diseased plants.
Grading is carried out 7 to 14 days after the contamination, in comparison with the control plants.

Sphaerotheca fuliginea [3] = assay: Example 13: efficacy against Sphaerotheca fuliginea on gherkin plants, Compound 1 and iprovalicarb; details: grading 21 days after contamination
Experimental: Gherkin plants (Vert petit de Paris variety) in starter cups, sown on a 50/50 peat soil-pozzolana substrate and grown at 20° C./23° C., are treated at the 2-leaves stage by spraying with the aqueous suspension described above.
After 24 hours, the plants are contaminated by spraying them with an aqueous suspension of Sphaerotheca fuliginea spores (100 000 spores per ml). The spores are collected from a contaminated plants The contaminated gerkhin plants are incubated at about 20° C./25° C. and at 60/70% relative humidity.
(§6) Grading (% of efficacy) is carried out 21 days after the contamination, in comparison with the control plants.

Botrytis cinerea [4] = assay: Example 5: efficacy against Botrytis cinerea on gherkin plants, Compound 1 and iprodione; details: grading 5 to 7 days after contamination
Experimental: as §2, with “The formulated compounds are diluted with water to obtain the desired active material concentration. Gherkin” for “Gherkin”
as §3, §4

Botrytis cinerea [5] = assay: Example 2: efficacy against Botrytis cinerea on gherkin plants, Compound 1 and propineb; details: grading 5 to 7 days after contamination
Experimental: (§7) Gherkin plants (Petit vert de Paris variety) in starter cups, sown on a 50/50 peat soil-pozzolana substrate and grown at 18-20° C., are treated at the cotyledon Z11 stage by spraying with the aqueous suspension described above.
as §3, §4

Botrytis cinerea [6] = assay: Example 10: efficacy against Botrytis cinerea on gherkin plants, Compound 1 and fosetyl-Al; details: grading 5 to 7 days after contamination
Experimental: (§8) The formulated compounds are diluted with water to obtain the desired active material concentration.
as §2, §3, §4

Botrytis cinerea [7] = assay: Example 9: efficacy against Botrytis cinerea on gherkin plants, Compound 1 and propamocarb-HCl; details: grading 5 to 7 days after contamination
Experimental: as §7, §3, §4

Botrytis cinerea [8] = assay: Example 4: efficacy against Botrytis cinerea on gherkin plants, Compound 1 and folpet; details: grading 5 to 7 days after contamination
Experimental: as §2, with “The formulated compounds are diluted with water to obtain the desired active material concentration. Gherkin” for “Gherkin”
as §3, §4

Botrytis cinerea [9] = assay: Example 1: efficacy against Botrytis cinerea on gherkin plants, Compound 1 and mancozeb; details: grading 5 to 7 days after contamination
Experimental: as §7, §3, §4

Sphaerotheca fuliginea [10] = assay: Example 11: efficacy against Sphaerotheca fuliginea on gherkin plants, Compound 1 and tolylfluanid; details: Podosphaera fuliginea, 504 h, grading 21 days after contamination
Experimental: as §8
as §2, with “(Vert petit” for “(Petit vert”, “20° C./23°” for “18-20°”, “2-leaves” for “cotyledon Z11”
After 24 hours, the plants are contaminated by spraying them with an aqueous suspension of Sphaerotheca fuliginea spores (100,000 spores per ml). The spores are collected from a contaminated plants The contaminated gerkhin plants are incubated at about 20° C./25° C. and at 60/70% relative humidity.
as §6

Botrytis cinerea [11] = assay: Example 6: efficacy against Botrytis cinerea on gherkin plants, Compound 1 and fludioxonil
Experimental: as §1, §2, §3, §4

Peronospora parasitica = assay: Example 12: efficacy against Peronospora parasitica on cabbage plants, Compound 1 and Compound A; details: Hyaloperonospora parasitica, 120 h, grading 5 days after contamination
Experimental: The active ingredient tested is prepared by potter homogenisation in a concentrated suspension type formulation at 100 g/l. This suspension is then diluted with water to obtain the desired active material concentration.
Cabbage plants (Eminence variety) in starter cups, sown on a 50/50 peat soil-pozzolana substrate and grown at 18-20° C., are treated at the cotyledon stage by spraying with the aqueous suspension described above.
as §5
After 24 hours, the plants are contaminated by spraying them with an aqueous suspension of Peronospora parasitica spores (50,000 spores per ml). The spores are collected from infected plant.
The contaminated cabbage plants are incubated for 5 days at 20° C., under a humid atmosphere.
Grading is carried out 5 days after the contamination, in comparison with the control plants.

Botrytis cinerea [12] = assay: Example 8: efficacy against Botrytis cinerea on gherkin plants, Compound 1 and metalaxyl-M; details: grading 5 to 7 days after contamination
Experimental: as §1, §2, §3, §4

Molecule: COC(=O)C(C)N(C(=O)Cc1ccccc1)c1c(C)cccc1C (stereo not drawn) [Benalaxyl, benalaxyl, reference compound]
- Emax at 111 ppm (Botrytis cinerea [1]; 111 ppm): 7%

Molecule: O=C1C2CC=CCC2C(=O)N1SC(Cl)(Cl)Cl (stereo not drawn) [Captan, captan]
- Emax at 125 ppm (Puccinia recondita): 0%
- Emax at 250 ppm (Puccinia recondita): 0%
- Emax at 500 ppm (Puccinia recondita; 500 ppm): 10%

Molecule: N#Cc1c(Cl)c(Cl)c(Cl)c(C#N)c1Cl [Chlorothalonil, chlorothalonil, reference compound]
- Emax at 250 g/ha [2]: 0%

Molecule: O=C(NCCc1ncc(C(F)(F)F)cc1Cl)c1ccccc1C(F)(F)F [Compound 1, N-{2-[3-chloro-5-(trifluoromethyl)-2-pyridinyl]ethyl}-2-trifluoromethylbenzamide]
- Emax at 250 g/ha [2]: 30%
- Emax at 500 g/ha ([2]; 500 g/ha): 60%
- Emax at 12.3 ppm (Sphaerotheca fuliginea [3]; Podosphaera fuliginea, 504 h, 12.3 ppm): 65%
- Emax at 37 ppm (Botrytis cinerea [4]): 0%
- Emax at 37 ppm (Botrytis cinerea [5]; Botrytis cinerea, 37 ppm): 65%
- Emax at 111 ppm (Botrytis cinerea [5]; Botrytis cinerea, 111 ppm): 87%
- Emax at 125 ppm (Puccinia recondita): 0%
- Emax at 250 ppm (Puccinia recondita): 10%
- Emax at 111 ppm (Botrytis cinerea [6]; Botrytis cinerea, 111 ppm): 70%
- Emax at 111 ppm (Botrytis cinerea [7]; 111 ppm): 70%
- Emax at 37 ppm (Botrytis cinerea [8]; 37 ppm): 50%
- Emax at 111 ppm (Botrytis cinerea [8]; 111 ppm): 70%
- Emax at 37 ppm (Botrytis cinerea [9]; Botrytis cinerea, 37 ppm): 50%
- Emax at 111 ppm (Botrytis cinerea [9]; Botrytis cinerea, 111 ppm): 70%
- Emax at 4.1 ppm (Sphaerotheca fuliginea [10]; 4.1 ppm): 69%
- Emax at 12.3 ppm (Botrytis cinerea [11]; 12.3 ppm, gherkin plants, grading 5 to 7 days after contamination): 0%
- Emax at 37 ppm (Botrytis cinerea [11]; 37 ppm, gherkin plants, grading 5 to 7 days after contamination): 38%
- Emax at 37 ppm (Botrytis cinerea [1]; 37 ppm): 78%
- Emax at 12.3 ppm (Peronospora parasitica): 0%
- Emax at 37 ppm (Botrytis cinerea [12]; Botrytis cinerea, 37 ppm): 45%

Molecule: O=C(NCc1ncc(C(F)(F)F)cc1Cl)c1c(Cl)cccc1Cl [Compound A, 2,6-dichloro-N-{[3-chloro-5-(tri-fluoromethyl)-2-pyridinyl]methyl}benzamide, reference compound]
- Emax at 12.3 ppm (Peronospora parasitica): 40%

Molecule: N#Cc1c[nH]cc1-c1cccc2c1OC(F)(F)O2 [Fludioxonil, fludioxonil, reference compound]
- Emax at 4.1 ppm (Botrytis cinerea [11]; read-out: % Efficacy): 0%

Molecule: O=C1c2ccccc2C(=O)N1SC(Cl)(Cl)Cl [Folpet, folpet, reference compound]
- Emax at 333 ppm (Botrytis cinerea [8]; 333 ppm): 0%
- Emax at 1000 ppm (Botrytis cinerea [8]; 1000 ppm): 0%

Molecule: CCO[PH](=O)O [Fosetyl-Al, fosetyl-Al, reference compound]
- % Efficacy (Botrytis cinerea [6]; 1000 ppm): 0%

Molecule: CC(C)NC(=O)N1CC(=O)N(c2cc(Cl)cc(Cl)c2)C1=O [Iprodione, iprodione]
- Emax at 37 ppm (Botrytis cinerea [4]): 0%
- Emax at 111 ppm (Botrytis cinerea [4]; 111 ppm): 90%

Molecule: Cc1ccc(C(C)NC(=O)[C@@H](NC(=O)OC(C)C)C(C)C)cc1 (stereo partly drawn) [Iprovalicarb, iprovalicarb, reference compound]
- % Efficacy (Sphaerotheca fuliginea [3]; 111 ppm): 50%

Molecule: COCC(=O)N(c1c(C)cccc1C)[C@H](C)C(=O)OC [Metalaxyl-M, metalaxyl-M, reference compound]
- % Efficacy (Botrytis cinerea [12]; 111 ppm): 0%

Molecule: CCCOC(=O)NCCCN(C)C [Popamocarb-HCl, propamocarb-HCl, reference compound]
- Emax at 1000 ppm (Botrytis cinerea [7]; 1000 ppm): 0%

Molecule: Cc1ccc(N(SC(F)(Cl)Cl)S(=O)(=O)N(C)C)cc1 [Tolylfluanid, tolylfluanid]
- Emax at 12.3 ppm (Sphaerotheca fuliginea [10]; 12.3 ppm): 0%
- Emax at 37 ppm (Sphaerotheca fuliginea [10]; 37 ppm): 50%

Molecule: mancozeb [reference compound]
- % Efficacy (Botrytis cinerea [9]; 1000 ppm): 0%

Molecule: propineb [reference compound]
- % Efficacy (Botrytis cinerea [5]; 3000 ppm): 0%

— US7776892B2, “Fungicidal composition comprising a pyridylethylbenzamide derivative and a compound capable of inhibiting the spores germination or mycelium growth by acting on different metabolic routes” (Bayer Cropscience S.A., priority 2004, dated 2010)
